SMILES	melting point [°C]
COc1cc2ncnc(NC3=CC(=O)C(N4CCCCC4)=CC3=O)c2cc1OC	226 to 227
CN1OC(COCc2ccc(Cl)cc2)CC1(Cn1ccnc1)c1ccc(Cl)cc1 (stereo unspecified)	97 to 100
O=C(O)C1=Cc2cc(Oc3ccc(C(F)(F)F)cc3)cc(Cl)c2OC1C(F)(F)F (stereo unspecified)	224 to 226
CCOC(=O)c1cnc2sc3c(n12)CCC3	101 to 102
CN1CCC(N(C)c2nc(Nc3ccc(O)c(Cl)c3)nc(NC3CCCCCC3)n2)CC1	68
COCCNC(=O)c1ccnc(-c2cccc3cc(Cc4cccc(C(F)(F)F)c4)sc23)c1F	94 to 95
CC(C)(C)c1cc2c(c(C(C)(C)C)c1)O[PH](=O)Oc1c(cc(C(C)(C)C)cc1C(C)(C)C)C2	164
O=C(O)CCCn1nc(-c2c(-c3ccccc3)nn3ccccc23)ccc1=O	240
CCCOC(=O)c1cnc(S)n1C(c1ccccc1)c1ccccc1	133
Cc1nc(N2CCN(Cc3ccc(F)cc3)C2=O)sc1C(=O)N(C)C	162 to 164
O=C(NCCCC(=O)N1CCCC1=O)c1cc(Br)no1	141 to 142
C=CCSc1ccc(Oc2ccccc2C)nn1	78 to 80
Cc1ccc(Cl)cc1N1CN(Cc2ccccc2)CN(Cc2ccccc2)C1=S	202 to 203
Cn1ncc2nc3cccc(F)c3c(Cl)c21	269
CC(=O)NC1(c2ccc(C(C)N3CCN(c4ccc(F)cc4)CC3)cc2)CC1 (stereo unspecified)	149 to 150
CNC(=C[N+](=O)[O-])NCCSCc1csc(CN2CCCCC2)c1	101 to 103
CC(C)OCc1c(S(C)(=O)=O)ccc(Br)c1Cl	87 to 91
CC(C)(C#N)NC(=O)Sc1ccccc1	152 to 155
COC1(c2nc(Sc3ccc(/C(C)=N/O)cc3)cs2)CCOCC1	89
Cc1cccc(C#Cc2cccc(Br)c2)n1	60 to 61
CC1Cc2ccc(C#N)cc2C1=O (stereo unspecified)	95
O=Cc1cc(-c2ncc(C(F)(F)F)cc2Cl)ccc1Cl	94
CN1C(=O)C(F)N=C(c2ccccc2Cl)c2ccc(Cl)cc21 (stereo unspecified)	204 to 205
O=C(O)Cc1c(C(=O)c2cccc(OCc3ccccc3)c2)[nH]c2cc(Cl)ccc12	174 to 177
O=C(CCCN1CCOCC1)c1ccc2c(c1)Cc1cc(C(=O)CCCN3CCOCC3)ccc1S2	90.5 to 91.5
COC(=O)c1ccc(Cl)cc1NC(=O)CSc1cccc(Br)c1	89 to 90

SMILES	melting point [°C]
COc1cc2ncc(C#N)c(Nc3cc(C)c(O)c(C)c3)c2cc1OC	234 to 236
CC(O)(C#Cc1ccccc1)C(=O)O (stereo unspecified)	104 to 106
COc1ccc(N2CCN(CC(O)COc3cccc4cc(C(C)=O)oc34)CC2)cc1 (stereo unspecified)	173 to 175
CC(C)CCCC(C)C1CC=C2C3=C(CCC21C)C1(C)CCC(O)CC1CC3 (stereo unspecified)	113 to 114
CNC1CCN(c2ncc3ncnc(Nc4ccc(F)c(Cl)c4)c3n2)CC1	174 to 176
N#Cc1csc([N+](=O)[O-])c1Br	176 to 178
CN(C)Cc1nc(-c2ncn3c2[C@@H]2CCN2C(=O)c2c-3ccc(F)c2Cl)no1	166 to 169
NP(N)(=O)NC(=O)c1ccc(F)cc1	255 to 257
CC(C)c1cc(C(=O)Nc2ccc(C(=O)O)o2)oc1C(C)C	169 to 171
c1ccc(CN(Cc2ccccc2)c2nccc(-c3ccc(-c4ccc(N(c5ccccc5)c5ccccc5)cc4)cc3)n2)cc1	164 to 165
NC(=O)c1cnn2cccc2c1NC1CCC(O)CC1 (stereo unspecified)	192
CCCCCC(C)C(C)c1cc(O)c2c(c1)OC(C)(C)C1=C2CCC1 (stereo unspecified)	154 to 156
O=c1cc2c3ccccc3sn2c2ccc(Cl)cc12	> 350
O=c1[nH]c(Nc2cccc(C(F)(F)F)c2)nc2c1ncn2CCO	347 to 349
CN(C)C1(c2ccccc2)CCC2(OCCc3c2[nH]c2ccc(F)cc32)C(Cc2cccc(F)c2)C1 (stereo unspecified)	133 to 135
COC(=O)CCCc1cc2nc(Cl)ccc2n1S(=O)(=O)c1ccc(OC)cc1	96
COc1nc(NC(=O)NS(=O)(=O)c2cscc2C)nc(OC)n1	154 to 156
CNC(=O)C1CN(C(=O)/C=C/C2=C(C)CCCC2(C)C)CCN1C(N)=O (stereo unspecified)	100 to 112
CC1(CN2CCN(C(=O)OCc3ccccc3)CC2)Cn2cc([N+](=O)[O-])nc2O1 (stereo unspecified)	130 to 132
Cc1c(C)c2c(c(C)c1NC(=O)CC(C)(C)C)OC(C)(C)C2Cc1ccccc1 (stereo unspecified)	209 to 210
O=C1C=NC(c2cccs2)(C(F)(F)F)O1 (stereo unspecified)	62 to 65
N#CCCCCCCNc1ccc(O)cc1	75 to 76
CCn1cc(C(=O)O)c(=O)c2cc(F)c(N3CCC(CN(C)C)C3)c(F)c21 (stereo unspecified)	204 to 206
COc1nc(OC)c(I)c(C(=O)O)n1	125 to 126
O=C(NCc1ccccn1)Nc1cc(N2CC3(CCCCC3)CC2=O)ccn1	191 to 192
CCc1c(C(=O)C(N)=O)c2c(NCC(=O)O)cccc2n1Cc1ccccc1	151 to 157

SMILES	melting point [°C]
CN1CCN(Cc2ccc3c(=O)n(CCCCN4CC=C(c5ccccc5)CC4)c(=O)[nH]c3c2)CC1	167 to 168
N#Cc1ccc(-c2ccc(Cl)cc2Cl)c(F)c1	65 to 67
CC(C)c1c(CO)c(-c2ccc(F)cc2)c2ccccn12	90 to 92
Cc1oc(-c2ccccc2)nc1CCOc1ccc(C[C@H](NC(=O)C(F)=Cc2ccccc2)C(=O)O)cc1	174 to 176
Cc1nc2cc(NCC(=O)C(C)(C)C)ccc2s1	108 to 111
CN1Cc2c(C#CC(C)(C)OC(=O)C(C)(C)C)ncn2-c2cccc(Cl)c2C1=O	132 to 133
COc1ccccc1-n1cnc2cc(N)ccc21	48 to 50
CC1(C)SC(=NO)NC1=O	198 to 200
C[C@]1(COC(=O)N2CCN(N=Cc3ccc(C(F)(F)F)cc3)CC2)Cn2cc([N+](=O)[O-])nc2O1	176 to 178
O=C1N=CC(OCC2CC2)(C(F)(F)F)c2cc(Cl)ccc2N1 (stereo unspecified)	185 to 186
CCCc1nc(SC(F)F)c(C(=O)O)n1Cc1ccc(-c2ccccc2S(=O)(=O)NC(=O)NCc2ccccc2)cc1	150
Cn1cc(-c2cc(-c3cnc4[nH]ncc4c3)ccn2)n(-c2ccc(C(C)(C)C#N)cc2)c1=O	294
CCCOC(=O)c1cc(C(=O)Nc2ccccc2O)cc(Br)c1O	198 to 200
CCCCCCC(Oc1ccc(C2=CCCCCCC2)cc1)C(=O)O (stereo unspecified)	55 to 57
COc1ccc(C[C@H](C)NS(=O)(=O)c2ccccc2)cc1	74.5 to 76
Cc1oc(-c2ccccc2)nc1COc1cc(COc2ncccc2C=O)on1	90 to 91
CN1C(=O)CN(c2cccc(Cl)c2)NC1=O	178 to 180
O=S1(=O)C=CC(c2ccccc2)(c2ccccc2)CC1	166
N#CCOc1cc2c(cc1C#Cc1ccccc1)NC(=O)CC(c1cccc(-n3ccnc3)c1)=N2	214
Cc1ncccc1CN(CCn1cc(C)c2occc2c1=O)Cc1ccc2c(c1)NC(=O)C(C)(C)C(=O)N2C1CC1	191 to 193
CC(C)OC(=O)c1c(S(C)(=O)=O)ccc(C(=O)O)c1Cl	114 to 118
Clc1ccc(Nc2nc(-c3nccc4ccccc34)nc3ccccc23)cc1	279 to 280
CCc1c(Cl)ccc2c1C=C(C(=O)O)C(C(F)(F)F)O2 (stereo unspecified)	172
COc1cccc(CN2CCCCc3cc(CN(O)C(N)=O)ccc32)c1	38 to 42
CS(=O)(=O)c1ccc(-c2coc3ccc(-c4nnc(O)o4)cc23)cc1	284 to 285
Cc1c(C(=O)Nc2ccc(N3CCC(N4CCOCC4)CC3)c(C#N)c2)cnn1-c1cccc(C(F)(F)F)c1	215 to 216

SMILES	melting point [°C]
CN(c1cccc2cc(-c3nccs3)[nH]c12)S(=O)(=O)c1ccsc1C(=O)N1CCOCC1	190
CNC(=O)ON=C1SCS(=O)CS1 (stereo unspecified)	175 to 177
C=CC1CCC2c3ccc(OCC)c(F)c3OC2C1 (stereo unspecified)	141
COC(=O)c1cc(OC)nc(C)n1	90 to 93
CCOC(=O)c1cccc(C(OC(=O)Nc2ccc3[nH]ncc3c2)[C@@H]2CCCCN2)c1 (stereo partly specified)	174
Cc1ccc(C(=O)N[C@H]2CC[C@H](CCN3CCN(c4nccc5c4OCC5)CC3)CC2)cn1	204
CCOc1ccccc1-c1ncc(C(N)=O)c(=O)[nH]1	236 to 238
N#CN=CNC1c2ccccc2CC2CCCCC21 (stereo unspecified)	145 to 165
COc1cccc(/C=C/c2cccc(C(=O)O)c2)c1	195 to 198
COc1ccc2c(c1)sc1nc(C(=O)C3CC3)cn12	213
CCCn1cc2c(C3C(=O)Nc4ccc(Br)cc43)nc(NCC3CCCO3)nc2n1 (stereo unspecified)	309 to 312
COc1ccc(CCCCNC(=O)CCl)cc1OC	94 to 95
Nc1c(Cl)cc(C(O)CNCCCCCCOCCCc2ccc([N+](=O)[O-])cn2)cc1Cl (stereo unspecified)	60 to 61
COc1ccc2c(c1)Nc1cccc(SC)c1S2	152 to 154
COc1cc2c(Nc3cccc(Cl)c3F)ncnc2cc1OC1CCN(C(=O)C2(O)CC2)CC1	177 to 178
Nc1c(Cl)cc(C(=O)NCCC23CCCN2CCC3)c2c1CCO2	124
Cc1ccc(-c2nc3ccc(OCCN4CCCCC4)cc3n2-c2ccccc2)cc1C	111
CC(=O)OCCC(C(N)=O)C1(C)OCCc2c1[nH]c1ccccc21 (stereo unspecified)	141 to 143
CCCC(=O)N(C)SN(C(=O)NC(=O)c1c(F)cccc1F)c1ccc(Oc2ccc(C(F)(F)F)cc2Cl)cc1F	136 to 138
NC(=O)CCCCn1ccc(NC(N)=NCC(F)(F)F)n1	130
COc1cccc(Nc2ccnc(Nc3cc(NC(C)=O)c(OC)c(OC)c3)n2)c1	158 to 160
O=C(Nc1ccc2c(c1)nc1n2CCC1)c1cc2cccnc2n1Cc1ccccc1	251 to 252
CCOCCNc1nc(Cl)nc(Cl)n1	77

From a melting point compilation (Tetko et al.; mined from patent text by program, amines drawn as free bases though some values may be those of a salt)
